Columns and labels:
[1] = Solubility in mock syrup system (0.3%); type: physicochemical
[2] = Appearance of 0.3 wt % syrup concentrates diluted from super concentrates; type: physicochemical; settings: 0.3 wt % (5.5+1 syrup concentration) in water, mixed at room temperature for 90 hours
Experimental: The final syrup concentrations are provided below:
The 2 wt % super concentrates were then diluted to a 5.5+1 syrup concentration (0.3 wt %) with water and mixed at room temperature for 90 hours.

SMILES	Solubility in Syrup System (0.3%) ([1]; 500 ppm in citric buffer)	Solubility in Syrup System (0.3%) ([1]; 512 ppm in citric buffer)	Observations [2]
C=C1C[C@@]23CCC4[C@](C)(C(=O)OC5OC(CO)C(O)C(OC6OC(CO)C(O)C(O)C6O)C5OC5OC(CO)C(O)C(O)C5O)CCC[C@@]4(C)[C@@H]2CCC1(OC1OC(CO)C(O)C(OC2OC(CO)C(O)C(O)C2O)C1OC1OC(CO)C(O)C(O)C1O)C3 (stereo partly drawn) [Reb-M, 13-[(2-O-β-D-glucopyranosyl-3-O-β-D-glucopyranosyl-β-D-glucopyranosyl)oxy] ent kaur-16-en-19-oic acid-[(2-O-β-D-glucopyranosyl-3-O-β-D-glucopyranosyl-β-D-glucopyranosyl) ester]]	No	No	–
C=C1C[C@@]23CC[C@H]4[C@@](C)(CCC[C@@]4(C)C(=O)O[C@@H]4O[C@H](CO)[C@@H](O)[C@H](O[C@@H]5O[C@H](CO)[C@@H](O)[C@H](O)[C@H]5O)[C@H]4O[C@@H]4O[C@@H](C)[C@H](O)[C@@H](O)[C@H]4O)[C@@H]2CC[C@]1(O[C@@H]1O[C@H](CO)[C@@H](O)[C@H](O[C@@H]2O[C@H](CO)[C@@H](O)[C@H](O)[C@H]2O)[C@H]1O[C@@H]1O[C@H](CO)[C@@H](O)[C@H](O)[C@H]1O)C3 [Reb N]	–	–	cloudy

Source: patent US20240407413A1, “Concentrates Compromising Stevia Blends and Uses” (The Coca-Cola Company, priority 2018, published 2024)
